Results as given in publication PMC6199744, “Development of Chemical Proteomics for the Folateome and Analysis of the Kinetoplastid Folateome” (ACS Infectious Diseases, 2018).
Where two headings read alike, the source gives them in different places.

Assays:
[1] = test system: CHOLINE KINASE (TB427TMP.18.0017); assay: Multitargeted bead mixture competition; format: binding, T. brucei; conditions: for fold change vs vehicle control / fold change - vehicle control: protein TB427TMP.18.0017 CHOLINE KINASE; for fold change vs vehicle control: vehicle control = 1
[2] = molecular target: T1, HeLa cell extract proteins (Homo sapiens, UniProt O75694); format: binding
T1 construct: endogenous in cells; host or cells: HeLa cell extract
T1 sequence (O75694 1-1391): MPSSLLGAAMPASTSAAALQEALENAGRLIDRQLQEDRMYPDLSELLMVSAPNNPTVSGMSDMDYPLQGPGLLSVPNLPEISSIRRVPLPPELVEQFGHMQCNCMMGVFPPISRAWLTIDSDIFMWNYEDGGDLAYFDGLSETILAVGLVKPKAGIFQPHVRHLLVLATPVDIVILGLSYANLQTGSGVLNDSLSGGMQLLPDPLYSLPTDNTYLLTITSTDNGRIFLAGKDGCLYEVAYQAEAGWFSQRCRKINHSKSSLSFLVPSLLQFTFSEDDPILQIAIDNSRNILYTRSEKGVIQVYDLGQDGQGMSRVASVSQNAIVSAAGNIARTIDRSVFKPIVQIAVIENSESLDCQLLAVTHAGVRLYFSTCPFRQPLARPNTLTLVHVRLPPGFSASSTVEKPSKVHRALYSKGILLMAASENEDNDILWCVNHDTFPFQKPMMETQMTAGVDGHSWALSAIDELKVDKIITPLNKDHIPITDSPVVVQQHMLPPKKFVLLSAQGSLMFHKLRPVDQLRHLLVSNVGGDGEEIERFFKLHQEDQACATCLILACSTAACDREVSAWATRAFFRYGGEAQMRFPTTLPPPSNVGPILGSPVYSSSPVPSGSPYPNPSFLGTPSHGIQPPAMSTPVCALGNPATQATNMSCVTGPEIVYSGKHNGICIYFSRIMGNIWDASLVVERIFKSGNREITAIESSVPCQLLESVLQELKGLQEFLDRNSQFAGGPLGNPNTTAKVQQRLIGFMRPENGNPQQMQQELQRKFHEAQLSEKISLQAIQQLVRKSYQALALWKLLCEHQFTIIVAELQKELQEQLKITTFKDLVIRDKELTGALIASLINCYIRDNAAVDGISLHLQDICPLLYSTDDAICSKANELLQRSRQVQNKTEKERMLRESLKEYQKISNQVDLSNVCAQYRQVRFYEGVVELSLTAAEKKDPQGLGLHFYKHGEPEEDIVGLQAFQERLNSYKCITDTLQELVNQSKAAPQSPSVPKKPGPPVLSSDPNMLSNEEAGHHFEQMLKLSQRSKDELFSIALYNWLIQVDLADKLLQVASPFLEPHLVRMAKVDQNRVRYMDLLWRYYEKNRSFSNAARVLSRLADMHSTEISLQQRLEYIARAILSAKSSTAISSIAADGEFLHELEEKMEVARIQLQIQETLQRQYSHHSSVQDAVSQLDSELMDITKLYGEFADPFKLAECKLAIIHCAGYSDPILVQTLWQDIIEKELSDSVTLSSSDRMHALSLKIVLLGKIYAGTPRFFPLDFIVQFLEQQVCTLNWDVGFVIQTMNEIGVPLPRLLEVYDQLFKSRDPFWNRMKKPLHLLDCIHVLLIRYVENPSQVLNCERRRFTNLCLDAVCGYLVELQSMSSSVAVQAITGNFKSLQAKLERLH

[3] = molecular target: T2, HeLa cell extract proteins (Homo sapiens, UniProt P04080); format: binding
T2 construct: endogenous in cells; host or cells: HeLa cell extract
T2 sequence (P04080 1-98): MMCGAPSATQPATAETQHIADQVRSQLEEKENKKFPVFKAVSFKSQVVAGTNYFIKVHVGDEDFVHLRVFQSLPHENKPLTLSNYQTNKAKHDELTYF

[4] = molecular target: T3, HeLa cell extract proteins (Homo sapiens, UniProt P14625); format: binding
T3 construct: endogenous in cells; host or cells: HeLa cell extract
T3 sequence (P14625 22-803): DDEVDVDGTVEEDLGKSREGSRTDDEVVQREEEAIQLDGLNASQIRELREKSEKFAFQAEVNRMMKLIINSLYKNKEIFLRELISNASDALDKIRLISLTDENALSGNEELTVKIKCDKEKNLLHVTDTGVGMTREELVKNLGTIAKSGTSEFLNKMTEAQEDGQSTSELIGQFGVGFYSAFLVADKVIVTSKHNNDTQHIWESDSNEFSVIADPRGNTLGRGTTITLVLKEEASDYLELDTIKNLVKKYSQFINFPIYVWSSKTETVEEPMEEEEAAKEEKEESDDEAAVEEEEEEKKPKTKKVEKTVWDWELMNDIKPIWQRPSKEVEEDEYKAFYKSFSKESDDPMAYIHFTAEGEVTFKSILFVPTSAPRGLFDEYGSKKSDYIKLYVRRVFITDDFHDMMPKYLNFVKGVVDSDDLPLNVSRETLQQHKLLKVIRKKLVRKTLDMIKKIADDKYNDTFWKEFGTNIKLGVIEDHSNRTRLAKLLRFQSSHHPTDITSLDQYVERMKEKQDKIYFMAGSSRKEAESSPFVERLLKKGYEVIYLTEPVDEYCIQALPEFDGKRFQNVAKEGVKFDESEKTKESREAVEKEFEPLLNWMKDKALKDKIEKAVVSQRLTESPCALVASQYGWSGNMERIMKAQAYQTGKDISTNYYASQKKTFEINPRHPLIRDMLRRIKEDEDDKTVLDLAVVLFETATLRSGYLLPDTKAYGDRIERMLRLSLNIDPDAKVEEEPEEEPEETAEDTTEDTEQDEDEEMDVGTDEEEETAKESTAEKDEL

[5] = molecular target: T4, HeLa cell extract proteins (Homo sapiens, UniProt P50990); format: binding
T4 construct: endogenous in cells; host or cells: HeLa cell extract
T4 sequence (P50990 1-548): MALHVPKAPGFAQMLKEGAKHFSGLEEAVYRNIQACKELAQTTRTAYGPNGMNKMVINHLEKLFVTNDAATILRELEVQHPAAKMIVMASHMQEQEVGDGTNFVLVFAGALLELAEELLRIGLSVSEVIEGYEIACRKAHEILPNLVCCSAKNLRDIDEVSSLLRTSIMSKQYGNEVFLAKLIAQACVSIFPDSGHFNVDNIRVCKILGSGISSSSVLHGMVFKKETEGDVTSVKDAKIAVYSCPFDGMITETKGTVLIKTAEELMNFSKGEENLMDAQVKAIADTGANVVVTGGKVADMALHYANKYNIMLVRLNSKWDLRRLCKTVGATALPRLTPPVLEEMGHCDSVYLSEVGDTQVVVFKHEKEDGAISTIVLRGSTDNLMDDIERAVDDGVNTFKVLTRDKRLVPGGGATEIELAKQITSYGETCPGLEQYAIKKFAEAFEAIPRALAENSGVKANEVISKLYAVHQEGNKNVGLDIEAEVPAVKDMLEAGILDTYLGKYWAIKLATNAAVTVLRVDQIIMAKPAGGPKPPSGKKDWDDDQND

[6] = molecular target: T5, HeLa cell extract proteins (Homo sapiens, UniProt P55010); format: binding
T5 construct: endogenous in cells; host or cells: HeLa cell extract
T5 sequence (P55010 whole entry): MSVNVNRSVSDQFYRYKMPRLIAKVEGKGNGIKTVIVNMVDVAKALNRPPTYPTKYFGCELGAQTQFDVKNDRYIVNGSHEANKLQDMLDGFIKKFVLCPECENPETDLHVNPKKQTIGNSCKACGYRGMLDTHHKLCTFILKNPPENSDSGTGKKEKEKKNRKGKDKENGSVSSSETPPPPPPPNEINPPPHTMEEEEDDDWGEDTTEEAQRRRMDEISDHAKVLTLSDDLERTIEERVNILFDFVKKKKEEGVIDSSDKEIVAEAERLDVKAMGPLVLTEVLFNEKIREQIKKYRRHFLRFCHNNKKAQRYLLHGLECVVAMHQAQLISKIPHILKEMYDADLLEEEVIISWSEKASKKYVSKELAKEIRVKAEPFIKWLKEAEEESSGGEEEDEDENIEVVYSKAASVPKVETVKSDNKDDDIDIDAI

[7] = molecular target: T6, HeLa cell extract proteins (Homo sapiens, UniProt Q14974); format: binding
T6 construct: endogenous in cells; host or cells: HeLa cell extract
T6 sequence (Q14974 whole entry): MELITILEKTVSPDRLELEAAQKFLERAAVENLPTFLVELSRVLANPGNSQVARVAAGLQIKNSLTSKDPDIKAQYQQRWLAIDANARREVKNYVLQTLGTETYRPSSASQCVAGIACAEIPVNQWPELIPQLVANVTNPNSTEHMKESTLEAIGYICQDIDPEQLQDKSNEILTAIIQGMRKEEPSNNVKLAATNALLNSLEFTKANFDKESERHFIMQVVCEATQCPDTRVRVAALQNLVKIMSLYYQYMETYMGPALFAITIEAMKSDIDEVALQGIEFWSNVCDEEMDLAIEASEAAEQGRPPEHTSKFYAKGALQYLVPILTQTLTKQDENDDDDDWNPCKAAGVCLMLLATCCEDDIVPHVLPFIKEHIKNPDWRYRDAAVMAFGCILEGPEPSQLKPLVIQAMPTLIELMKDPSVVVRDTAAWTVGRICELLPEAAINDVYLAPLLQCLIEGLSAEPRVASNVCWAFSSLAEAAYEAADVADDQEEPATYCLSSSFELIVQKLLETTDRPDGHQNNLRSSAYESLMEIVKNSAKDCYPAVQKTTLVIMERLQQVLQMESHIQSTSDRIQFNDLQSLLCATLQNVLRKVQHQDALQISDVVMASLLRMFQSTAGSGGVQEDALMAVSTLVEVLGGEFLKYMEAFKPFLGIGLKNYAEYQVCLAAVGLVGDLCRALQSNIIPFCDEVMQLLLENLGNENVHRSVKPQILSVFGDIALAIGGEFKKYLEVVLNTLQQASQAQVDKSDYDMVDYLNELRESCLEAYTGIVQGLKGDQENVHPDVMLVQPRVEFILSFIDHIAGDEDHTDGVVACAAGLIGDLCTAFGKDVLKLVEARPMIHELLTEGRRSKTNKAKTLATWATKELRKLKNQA

DHFR-TS = DHFR-TS (Leishmania major, UniProt P07382); format: binding; conditions: for fold change: LMJF.06.0860 DIH[…]-T[…], vehicle control = 1
DHFR-TS, sequence (P07382 whole entry): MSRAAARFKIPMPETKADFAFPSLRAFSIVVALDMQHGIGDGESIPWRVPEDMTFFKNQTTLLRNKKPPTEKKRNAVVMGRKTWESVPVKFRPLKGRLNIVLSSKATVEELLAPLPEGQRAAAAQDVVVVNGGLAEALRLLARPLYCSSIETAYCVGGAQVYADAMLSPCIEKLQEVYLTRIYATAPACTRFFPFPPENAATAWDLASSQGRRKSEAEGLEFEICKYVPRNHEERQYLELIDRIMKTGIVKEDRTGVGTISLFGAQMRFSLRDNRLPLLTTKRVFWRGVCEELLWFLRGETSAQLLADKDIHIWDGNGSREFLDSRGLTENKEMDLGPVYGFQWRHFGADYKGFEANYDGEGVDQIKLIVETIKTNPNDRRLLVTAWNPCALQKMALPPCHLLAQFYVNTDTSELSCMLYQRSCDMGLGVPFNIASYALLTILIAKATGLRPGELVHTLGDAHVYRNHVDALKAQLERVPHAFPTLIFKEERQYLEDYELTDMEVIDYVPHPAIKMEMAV

DHCH = assay: Multitargeted bead mixture competition; format: binding, L. major; conditions: CYTOPLASMIC, PUTATIVE; for fold change: vehicle control = 1
[8] = test system: glutamate 5′-kinase (LmjF.26.2710); assay: Multitargeted bead mixture competition; format: binding, Leishmania; conditions: for fold change vs vehicle control / fold change: protein LMJF.26.2710 GLUTAMATE 5-KINASE, PUTATIVE; for fold change: vehicle control = 1
[9] = test system: methylthioadenosine phosphorylase (LmjF.05.0830); assay: Multitargeted bead mixture competition; format: binding, Leishmania; conditions: for fold change vs vehicle control: protein LMJF.05.0830 METHYLTHIOADENOSINE PHOSPHORYLASE, PUTATIVE
TS = molecular target: T7, TS (Homo sapiens, UniProt P04818); assay: Multitargeted bead mixture competition, HeLa cell extract; format: binding
T7 construct: endogenous in cells; host or cells: HeLa cell extract
T7 sequence (P04818 whole entry): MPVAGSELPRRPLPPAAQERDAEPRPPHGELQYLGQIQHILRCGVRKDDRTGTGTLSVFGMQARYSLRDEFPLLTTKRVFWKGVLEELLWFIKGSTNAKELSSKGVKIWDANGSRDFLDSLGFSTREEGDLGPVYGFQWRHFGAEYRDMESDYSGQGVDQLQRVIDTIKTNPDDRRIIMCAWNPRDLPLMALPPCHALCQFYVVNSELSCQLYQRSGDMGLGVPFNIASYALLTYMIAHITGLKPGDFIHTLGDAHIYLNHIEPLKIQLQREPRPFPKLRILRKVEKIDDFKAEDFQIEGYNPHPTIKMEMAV

[10] = protein LMJF.06.0860, DIH[…]-T[…]
[11] = protein LMJF.26.0320 C-1-TETRAHYDROFOLATE SYNTHASE
[12] = protein LMJF.26.0320 C-1-TETRAH[…]
[13] = bead mixture, Leishmania lysates

SMILES | fold change vs vehicle control [1] | fold changes relative to vehicle control ([2]; HeLa, protein NUP155) | fold changes relative to vehicle control ([3]; HeLa, protein CSTB) | fold changes relative to vehicle control ([4]; HeLa, protein HSP90B1) | fold changes relative to vehicle control ([5]; HeLa, protein CCT8) | fold changes relative to vehicle control ([6]; HeLa, captured protein EIF5) | fold changes relative to vehicle control ([7]; HeLa, protein KPNB1) | fold change relative to vehicle control (DHFR-TS; [10]) | fold change vs vehicle control [8] | fold change vs vehicle control [9] | fold changes relative to vehicle control (TS; protein TYMS, HeLa) | fold change - vehicle control [1] | fold changes relative to vehicle control ([5]; protein CCT8, HeLa) | fold changes relative to vehicle control ([7]; protein KPNB1, HeLa) | fold change (DHFR-TS) | fold change [8] | fold changes relative to vehicle control (TS; captured protein TYMS, HeLa) | fold changes relative to vehicle control [6] | also measured
Nc1nc2c(c(=O)[nH]1)N(C=O)C(CNc1ccc(C(=O)N[C@@H](CCC(=O)O)C(=O)O)cc1)CN2 (stereo partly drawn) [LEU, leucovorin] | 0.95 | 0.87 | 1.07 | 1.04 | 0.99 | 0.98 | 0.99 | 1.39 | 1.15 | 0.96 | 0.44 |  |  |  |  |  |  |  | fold change (DHCH; [11]): 0.98; inhibition, TS (TS; bead mixture, HeLa cell extract): > 56%
NCCCNc1ccc(C(=O)NC(CCC(=O)O)C(=O)O)cc1 (stereo not drawn) [compound 7] | 1.16 | 1.03 | 1.24 | 0.89 | 0.92 | 0.94 | 0.89 | 1.02 | 1 | 1.02 | 1.04 |  |  |  |  |  |  |  | fold change (DHCH; [12]): 1.06
CCCCCCOc1cccc(Cc2cnc(N)nc2N)c1 [compound 2] |  | 1.01 | 0.99 |  |  |  |  |  |  | 0.89 |  | 1.11 | 1.92 | 1.6 | 0.99 | 1.07 | 1.31 |  | fold changes relative to vehicle control ([4]; HeLa, protein HSP90B1 (ENDOPLASMIN PRECURSOR.)): 2.51 fold; fold changes relative to vehicle control ([6]; HeLa, protein EIF5 (EUKARYOTIC TRANSLATION INITIATION FACTOR 5.)): 2.16 fold; fold change vs vehicle control (DHCH; [11]): 0.96
CCCCCCOc1ccc(Cc2cnc(N)nc2N)cc1 [compound 1] |  | 1.04 | 1.08 |  |  |  |  |  |  | 0.19 |  | 1.05 | 1.16 | 1.09 | 0.17 | 1.07 | 0.76 | 1.24 fold | fold changes relative to vehicle control ([4]; HeLa, protein HSP90B1 (E[…].)): 1.35 fold; competition for DHFR-TS (Figure 8a) (DHFR-TS; bead mixture, L. major lysate): competed for DHFR-TS; fold change vs vehicle control (DHCH; [11]): 0.93; binding to methylthioadenosine phosphorylase (LmjF.05.0830) [9, 13]: bound
Nc1nc2cccc(-c3ccccc3)c2n1Cc1ccc(Cl)c(Cl)c1 [compound 3] |  | 1.2 | 1.17 |  |  |  |  |  |  | 0.94 |  | 1 | 0.96 | 0.97 | 1.11 | 1.05 | 0.99 | 0.91 fold | percentage of competition from bead binding ([1]; multitargeted bead mixture, free ligand 100 μM, T. brucei lysate, TB427TMP.18.0017 CHOLINE KINASE): -1%; fold changes relative to vehicle control ([4]; HeLa, protein HSP90B1 (E[…].)): 0.91 fold; fold change vs vehicle control (DHCH; [12]): 0.96
NCCOCCOCC(=O)Nc1nc2ncc(CNc3ccc(C(=O)NC(CCC(=O)O)C(=O)O)cc3)nc2c(=O)[nH]1 (stereo not drawn) [compound 6] | 1.05 | 0.92 | 1.29 | 1.18 | 1.15 | 1.64 | 1.13 | 1.19 | 1.06 | 0.96 | 0.55 |  |  |  |  |  |  |  | fold change (DHCH; [11]): 0.98
Nc1nc2[nH]cc(CCc3ccc(C(=O)N[C@@H](CCC(=O)O)C(=O)O)cc3)c2c(=O)[nH]1 [PTX, pemetrexed] | 0.98 |  |  |  |  |  |  |  | 0.14 | 0.91 |  |  |  |  |  |  |  | 1.05 | fold changes relative to vehicle control [2]: 0.92; fold changes relative to vehicle control [3]: 1.26; fold changes relative to vehicle control [4]: 1.14; fold changes relative to vehicle control [5]: 1.02; fold changes relative to vehicle control [7]: 1.06; fold change relative to vehicle control (DHFR-TS): 1.08; fold change (DHCH; [12]): 0.79; association with glutamate 5′-kinase (LmjF.26.2710) [8, 13]: strongly associated; fold changes relative to vehicle control (TS): 0.34; inhibition, TS (TS): > 56%
